These results are taken from patent US20040133938A1, “Use of lipoic acid in plant culture media” (priority 2002, published 2004).

This test has as its system potato stem explants, cultivar Ranger Russet. Description: Potato Agrobacterium transformation with glyphosate selection. The test is classed as cell-based. The note with it: for #rooted / shoots: 400 explants; for % TE (transformation efficiency) / % escape: potato. As for the experimental part:
This Example describes the use of lipoic acid in an Agrobacterium-based potato transformation protocol. Five days prior to inoculation, Agrobacterium containing the transformation vector of interest were streaked on a fresh LBssck plate (see media descriptions in Example 1) from the frozen glycerol stock, grown at about 28° C. for 3-4 days and stored in the refrigerator. About 20-22 hours before inoculation, 50 mL of liquid LBssck media (see media descriptions in Example 1) were dispensed into a 250-mL sterile flask. Using a sterile bacteriological loop, one loopful of bacteria from the LBssck plate was inoculated and agitated in the liquid LBssck. The 250-mL flasks were shaken at 25° C. overnight at medium to high speed. On inoculation day, 45 mL of MSO (4.4 g/L MS salts, 2 mL/L, Gamborg's B5 salts, 30 g/L sucrose) were dispensed into a 250 mL sterile flask. Using a sterile 5 mL pipette, 5 mL of the suspension was removed and dispensed into the flask containing the 45 mL of MSO and then agitated. The desired O.D. used for Agrobacterium transformation in potato was O.D.660=0.1.
The stock plant material to be used was collected from the growth chamber (16-hour light, 20° C.). The meristem was excised from the stock plants, and the cut end was placed in fresh PM (see media descriptions below) media, with ten meristems per plantcon. The leaves were removed from the potato stems by either cutting with a scalpel or pinching them off with forceps. After removing all the leaves in the plantcon, the stems were excised near the base and placed in an empty, sterile plantcon containing MSO. During this process, the plantcon(s) containing stems were kept closed except when adding more stems.
On the day of the inoculation, the stems were cut into 7 mm sections using a sterile scalpel and forceps. A 1/10 Agrobacterium solution was prepared by pipetting 4 mL of the Agrobacterium culture into 36 mL of MSO. The 1/10 agro solution was poured into the respective plates and swirled gently. A small amount of MSO was dispensed into the regeneration tissue and swirled. It was incubated for 15 min.
After 15 minutes, the Agrobacterium solution was removed with a vacuum aspirator. Using a sterile scoopula, the explants were scooped and spread onto the coculture plates with a piece of sterile 8.5 cm Whatman filter paper placed in the middle, about 100 explants per plate. The plates were placed in a bag and stored in a warm room ( 16/8 hour light, 19° C.) for two days.
After the two-day co-culture period, explants were placed on the appropriate selection media corresponding to the selectable marker provided in the transformation vector.
The explants were placed on the Z1 nonselection media at 20 explants per plate. The plates were placed in a bag and stored in a warm room (16-hour light, 19° C.). The glyphosate constructs were transferred to selection medium in 3 days.
In three days, the explants were transferred to Z1 glyphosate selection media at 20 explants per plate. The plates are bagged and placed in the warm room for one week.
After one week, the explants that were on Z1 glyphosate media were transferred to Z2 glyphosate media at 20 explants per plate. The plates were bagged and placed back in the warm room for 4 weeks. They remained on-this selection media for four weeks.
After two weeks, the experiment was checked for any shoots at this point. Shoots that were originating directly from the callusing end of the explant were excised. The shoots were placed on rooting media containing either kanamycin or glyphosate depending upon the selection used in the experiment and placed in the growth chamber. These were checked for rooting in two weeks. Any that were rooting were cut into tubes. This process was repeated after 2 more weeks. Any non-rooting plants were discarded after 4 weeks.
The lipoic acid study was conducted using the glyphosate transformation protocol as outlined above. […]

[1] abbreviates: 8 μM lipoic acid, listed as Lipoic acid.
The mark [2] stands for this setting: 9 μM lipoic acid, listed as Lipoic acid.

Regarding `O=C(O)CCCCC1CCSS1` (stereo not shown) [lipoic acid, 1,2-dithiolane-3-pentanoic acid], the “#rooted” value by setting is: (6 μM lipoic acid) 18; (7 μM lipoic acid) 16; (8 μM lipoic acid) 75; (9 μM lipoic acid) 70. The shoots reads like this: (6 μM lipoic acid) 27; (7 μM lipoic acid) 25; (8 μM lipoic acid) 89; (9 μM lipoic acid) 89. Further, the “% TE (transformation efficiency)” value (6 μM lipoic acid) worked out at 4.5%; the “% TE (transformation efficiency)” value (7 μM lipoic acid) was 4.0%; the “% TE (transformation efficiency)” value (8 μM lipoic acid) is given as 19.0%; the “% TE (transformation efficiency)” value under setting [1] came to 19%; the “% TE (transformation efficiency)” value (9 μM lipoic acid) was found to be 18.0%; the “% TE (transformation efficiency)” value under setting [2] came to 18%. Further, the “% escape” value amounted to 33.0% (6 μM lipoic acid); 36.0% (7 μM lipoic acid); 16.0% (8 μM lipoic acid); 16% under setting [1]; 21.0% (9 μM lipoic acid); 21% under setting [2]. In addition, the “increase in transformation efficiency” value (lipoic acid at 8 μM and 9 μM vs control) was “sixfold increase”. Besides, the “effect on transformation efficiency and escapes” value (lipoic acid at 6 and 7 μM) is given as “little effect”.
